Results: ChEMBL document CHEMBL2150882, “Discovery of a new molecular probe ML228: an activator of the hypoxia inducible factor (HIF) pathway” (Bioorg Med Chem Lett, 2012)
Activity calls are given as the source filed them. The calls are words filed in the database; no cut-off is given here.

Key:
[1] = target: Mu-type opioid receptor (Homo sapiens) (UniProt P35372); assay: Inhibition of human mu opioid receptor at 10 uM by radioligand displacement assay
[2] = target: hERG (KCNH2) (Homo sapiens, UniProt Q12809); assay: Inhibition of human ERG at 10 uM by radioligand displacement assay
[3] = target: T1, Alpha-2A adrenergic receptor (Homo sapiens) (UniProt P08913); assay: Inhibition of human alpha2A adrenergic receptor at 10 uM by radioligand displacement assay
T1 sequence (whole entry): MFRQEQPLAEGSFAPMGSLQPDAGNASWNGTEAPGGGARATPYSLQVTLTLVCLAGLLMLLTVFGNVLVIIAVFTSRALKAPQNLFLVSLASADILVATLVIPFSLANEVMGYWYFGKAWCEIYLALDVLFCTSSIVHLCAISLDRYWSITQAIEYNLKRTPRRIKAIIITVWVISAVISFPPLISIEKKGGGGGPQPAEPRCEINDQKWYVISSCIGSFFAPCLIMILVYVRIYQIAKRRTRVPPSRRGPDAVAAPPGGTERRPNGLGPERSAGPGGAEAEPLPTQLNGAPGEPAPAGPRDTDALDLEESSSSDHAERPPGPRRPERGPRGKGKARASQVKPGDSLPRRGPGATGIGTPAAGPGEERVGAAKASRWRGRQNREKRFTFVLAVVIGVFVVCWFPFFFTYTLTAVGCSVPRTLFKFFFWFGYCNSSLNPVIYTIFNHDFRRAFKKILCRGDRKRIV

[4] = Inhibition of proteasome chymotrypsin-like activity using Suc-LLVY-aminoluciferin as substrate by luciferase-coupled assay; format: subcellular
[5] = target: 5-hydroxytryptamine receptor 2B (Homo sapiens) (UniProt P41595); assay: Inhibition of human 5HT2B at 10 uM by radioligand displacement assay
[6] = species: Rattus norvegicus; assay: Inhibition of rat L-type calcium channel dihydropyridine binding site at 10 uM by radioligand displacement assay
[7] = target: Histamine H1 receptor (Homo sapiens) (UniProt P35367); assay: Inhibition of human histamine H1 receptor at 10 uM by radioligand displacement assay
[8] = target: T2, Alpha-1D adrenergic receptor (Homo sapiens) (UniProt P25100); assay: Inhibition of human alpha1D adrenergic receptor at 10 uM by radioligand displacement assay
T2 sequence (whole entry): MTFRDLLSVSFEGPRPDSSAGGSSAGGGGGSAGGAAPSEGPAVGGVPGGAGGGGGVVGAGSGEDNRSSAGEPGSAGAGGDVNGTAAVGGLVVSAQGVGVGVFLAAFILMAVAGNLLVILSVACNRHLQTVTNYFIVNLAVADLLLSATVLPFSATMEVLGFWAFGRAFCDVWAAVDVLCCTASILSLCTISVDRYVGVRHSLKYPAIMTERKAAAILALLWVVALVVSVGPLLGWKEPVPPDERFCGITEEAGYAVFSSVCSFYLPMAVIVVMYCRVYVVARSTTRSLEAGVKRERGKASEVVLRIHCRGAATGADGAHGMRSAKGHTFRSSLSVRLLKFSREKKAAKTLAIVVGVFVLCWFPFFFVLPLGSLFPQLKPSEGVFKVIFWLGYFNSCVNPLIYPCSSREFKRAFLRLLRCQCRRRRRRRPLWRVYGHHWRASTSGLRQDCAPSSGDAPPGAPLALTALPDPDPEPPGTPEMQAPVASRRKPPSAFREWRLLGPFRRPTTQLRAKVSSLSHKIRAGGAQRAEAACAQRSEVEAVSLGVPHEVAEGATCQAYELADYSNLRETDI

[9] = tested on: U2OS; assay: Cytotoxicity against human U2OS cells expressing human HIF1alpha by CellTiterGlo assay in presence of 50 uM zinc; format: cell-based
[10] = target: Prostaglandin E2 receptor EP4 subtype (Homo sapiens) (UniProt P35408); assay: Inhibition of human prostanoid EP4 receptor at 10 uM by radioligand displacement assay
[11] = target: Sodium-dependent dopamine transporter (Homo sapiens) (UniProt Q01959); assay: Inhibition of human DAT at 10 uM by radioligand displacement assay
[12] = tested on: U2OS; assay: Cytotoxicity against human U2OS cells expressing human HIF1alpha by CellTiterGlo assay in presence of 50 uM iron; format: cell-based
[13] = target: Sodium-dependent noradrenaline transporter (Homo sapiens) (UniProt P23975); assay: Inhibition of human NET at 10 uM by radioligand displacement assay
[14] = species: Homo sapiens; assay: Inhibition of human melatonin MT1 receptor at 10 uM by radioligand displacement assay
[15] = target: T3, Adenosine receptor A3 (Homo sapiens) (UniProt P0DMS8); assay: Inhibition of human adenosine receptor A3 at 10 uM by radioligand displacement assay
T3 sequence (whole entry): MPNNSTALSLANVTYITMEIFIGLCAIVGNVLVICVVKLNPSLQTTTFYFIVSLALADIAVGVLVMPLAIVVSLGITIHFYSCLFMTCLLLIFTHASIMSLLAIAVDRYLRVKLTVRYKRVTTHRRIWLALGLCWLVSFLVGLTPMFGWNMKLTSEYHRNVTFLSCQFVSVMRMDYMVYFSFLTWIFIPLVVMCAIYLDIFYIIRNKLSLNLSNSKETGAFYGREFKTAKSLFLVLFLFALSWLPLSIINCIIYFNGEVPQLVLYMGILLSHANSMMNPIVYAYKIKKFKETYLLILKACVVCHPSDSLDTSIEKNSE

[16] = target: D(1A) dopamine receptor (Homo sapiens) (UniProt P21728); assay: Inhibition of human dopamine D1 receptor at 10 uM by radioligand displacement assay
[17] = target: D(3) dopamine receptor (Homo sapiens) (UniProt P35462); assay: Inhibition of human dopamine D3 receptor at 10 uM by radioligand displacement assay
[18] = target: Kappa-type opioid receptor (Homo sapiens) (UniProt P41145); assay: Inhibition of human kappa opioid receptor at 10 uM by radioligand displacement assay
[19] = species: Rattus norvegicus; assay: Inhibition of rat sodium channel site 2 at 10 uM by radioligand displacement assay

Chain of Mu-type opioid receptor (Homo sapiens) (P35372 whole entry): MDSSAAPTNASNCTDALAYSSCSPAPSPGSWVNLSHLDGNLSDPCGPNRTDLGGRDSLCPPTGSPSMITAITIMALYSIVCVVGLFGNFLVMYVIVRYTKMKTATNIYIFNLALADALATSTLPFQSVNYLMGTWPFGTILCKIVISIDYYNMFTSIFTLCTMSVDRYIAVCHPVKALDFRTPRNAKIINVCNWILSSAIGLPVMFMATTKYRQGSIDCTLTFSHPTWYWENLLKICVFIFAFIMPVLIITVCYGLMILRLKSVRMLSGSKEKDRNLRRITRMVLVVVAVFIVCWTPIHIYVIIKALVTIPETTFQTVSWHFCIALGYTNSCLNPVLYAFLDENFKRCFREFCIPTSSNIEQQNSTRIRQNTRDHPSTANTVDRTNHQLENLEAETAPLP
Chain of Prostaglandin E2 receptor EP4 subtype (Homo sapiens) (P35408 whole entry): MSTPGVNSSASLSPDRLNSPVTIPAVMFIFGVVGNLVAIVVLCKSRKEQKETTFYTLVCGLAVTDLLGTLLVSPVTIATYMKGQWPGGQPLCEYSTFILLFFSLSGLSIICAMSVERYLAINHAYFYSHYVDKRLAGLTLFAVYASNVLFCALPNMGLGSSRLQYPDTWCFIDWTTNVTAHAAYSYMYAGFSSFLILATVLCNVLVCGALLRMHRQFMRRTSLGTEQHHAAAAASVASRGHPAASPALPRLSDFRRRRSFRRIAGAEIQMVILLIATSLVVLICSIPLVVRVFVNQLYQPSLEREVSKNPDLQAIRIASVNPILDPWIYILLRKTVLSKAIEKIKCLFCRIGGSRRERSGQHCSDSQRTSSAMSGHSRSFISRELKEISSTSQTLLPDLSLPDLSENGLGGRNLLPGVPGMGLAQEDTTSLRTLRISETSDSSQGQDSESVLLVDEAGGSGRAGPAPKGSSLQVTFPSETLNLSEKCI
Chain of D(3) dopamine receptor (Homo sapiens) (P35462 whole entry): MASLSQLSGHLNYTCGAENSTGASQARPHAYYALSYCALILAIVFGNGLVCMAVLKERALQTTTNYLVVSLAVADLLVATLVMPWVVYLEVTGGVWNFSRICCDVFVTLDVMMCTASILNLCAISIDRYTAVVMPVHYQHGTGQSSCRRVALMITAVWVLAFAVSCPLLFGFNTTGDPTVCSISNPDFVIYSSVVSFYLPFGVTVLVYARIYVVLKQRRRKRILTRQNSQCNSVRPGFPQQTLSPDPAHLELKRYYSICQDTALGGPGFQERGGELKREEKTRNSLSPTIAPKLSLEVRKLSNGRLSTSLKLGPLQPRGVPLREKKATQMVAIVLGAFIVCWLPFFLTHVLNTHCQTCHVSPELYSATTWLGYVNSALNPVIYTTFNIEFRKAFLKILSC
Chain of Sodium-dependent dopamine transporter (Homo sapiens) (Q01959 whole entry): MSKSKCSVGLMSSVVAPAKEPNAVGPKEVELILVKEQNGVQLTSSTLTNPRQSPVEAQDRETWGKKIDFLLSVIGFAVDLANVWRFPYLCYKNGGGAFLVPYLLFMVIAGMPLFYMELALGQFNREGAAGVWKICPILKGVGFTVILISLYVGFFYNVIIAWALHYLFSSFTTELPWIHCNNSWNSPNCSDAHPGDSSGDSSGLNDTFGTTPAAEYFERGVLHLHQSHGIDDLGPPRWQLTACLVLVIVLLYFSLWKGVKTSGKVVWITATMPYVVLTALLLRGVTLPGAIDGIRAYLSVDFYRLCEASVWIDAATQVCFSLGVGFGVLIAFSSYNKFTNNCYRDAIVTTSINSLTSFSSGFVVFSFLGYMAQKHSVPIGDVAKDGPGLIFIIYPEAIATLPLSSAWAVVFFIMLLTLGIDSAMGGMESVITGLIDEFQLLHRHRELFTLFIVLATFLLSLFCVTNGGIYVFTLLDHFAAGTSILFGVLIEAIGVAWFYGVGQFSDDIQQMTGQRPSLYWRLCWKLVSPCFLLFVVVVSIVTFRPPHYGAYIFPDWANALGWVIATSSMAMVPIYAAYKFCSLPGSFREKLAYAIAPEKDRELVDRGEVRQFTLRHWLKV
Chain of Kappa-type opioid receptor (Homo sapiens) (P41145 whole entry): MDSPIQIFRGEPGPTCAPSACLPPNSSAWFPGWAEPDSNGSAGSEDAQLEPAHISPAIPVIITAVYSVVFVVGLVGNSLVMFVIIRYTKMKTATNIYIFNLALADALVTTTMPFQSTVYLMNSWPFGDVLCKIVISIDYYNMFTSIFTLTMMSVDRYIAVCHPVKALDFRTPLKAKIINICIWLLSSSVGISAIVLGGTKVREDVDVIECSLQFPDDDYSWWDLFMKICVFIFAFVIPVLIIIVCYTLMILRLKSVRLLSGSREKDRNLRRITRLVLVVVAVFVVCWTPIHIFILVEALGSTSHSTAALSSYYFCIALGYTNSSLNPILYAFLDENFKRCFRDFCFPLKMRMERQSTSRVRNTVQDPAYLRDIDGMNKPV
Chain of Histamine H1 receptor (Homo sapiens) (P35367 whole entry): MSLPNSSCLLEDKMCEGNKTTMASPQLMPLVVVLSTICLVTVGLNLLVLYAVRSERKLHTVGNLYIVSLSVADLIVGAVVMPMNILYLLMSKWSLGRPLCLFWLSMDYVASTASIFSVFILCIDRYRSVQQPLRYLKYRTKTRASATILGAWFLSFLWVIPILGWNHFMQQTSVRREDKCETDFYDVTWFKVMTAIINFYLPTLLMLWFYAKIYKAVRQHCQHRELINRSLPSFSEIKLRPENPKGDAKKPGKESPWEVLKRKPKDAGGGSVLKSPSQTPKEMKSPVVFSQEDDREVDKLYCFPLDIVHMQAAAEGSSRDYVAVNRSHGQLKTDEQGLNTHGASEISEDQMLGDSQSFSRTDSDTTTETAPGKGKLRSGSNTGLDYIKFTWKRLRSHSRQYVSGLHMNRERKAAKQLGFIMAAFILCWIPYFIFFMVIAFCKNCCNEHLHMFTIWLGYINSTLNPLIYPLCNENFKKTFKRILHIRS
Chain of D(1A) dopamine receptor (Homo sapiens) (P21728 whole entry): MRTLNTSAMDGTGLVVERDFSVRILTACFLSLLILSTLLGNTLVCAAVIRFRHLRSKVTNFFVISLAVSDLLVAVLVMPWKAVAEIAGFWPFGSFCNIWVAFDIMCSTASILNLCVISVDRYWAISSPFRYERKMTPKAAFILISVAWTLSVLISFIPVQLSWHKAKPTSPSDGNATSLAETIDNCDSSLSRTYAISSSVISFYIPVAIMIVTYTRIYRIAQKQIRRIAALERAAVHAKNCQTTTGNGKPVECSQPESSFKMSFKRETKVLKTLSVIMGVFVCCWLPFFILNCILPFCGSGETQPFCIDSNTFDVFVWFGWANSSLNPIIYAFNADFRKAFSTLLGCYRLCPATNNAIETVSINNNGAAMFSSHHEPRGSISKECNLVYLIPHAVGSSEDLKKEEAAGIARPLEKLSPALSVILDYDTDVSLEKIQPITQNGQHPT
Chain of hERG (KCNH2) (Q12809 whole entry): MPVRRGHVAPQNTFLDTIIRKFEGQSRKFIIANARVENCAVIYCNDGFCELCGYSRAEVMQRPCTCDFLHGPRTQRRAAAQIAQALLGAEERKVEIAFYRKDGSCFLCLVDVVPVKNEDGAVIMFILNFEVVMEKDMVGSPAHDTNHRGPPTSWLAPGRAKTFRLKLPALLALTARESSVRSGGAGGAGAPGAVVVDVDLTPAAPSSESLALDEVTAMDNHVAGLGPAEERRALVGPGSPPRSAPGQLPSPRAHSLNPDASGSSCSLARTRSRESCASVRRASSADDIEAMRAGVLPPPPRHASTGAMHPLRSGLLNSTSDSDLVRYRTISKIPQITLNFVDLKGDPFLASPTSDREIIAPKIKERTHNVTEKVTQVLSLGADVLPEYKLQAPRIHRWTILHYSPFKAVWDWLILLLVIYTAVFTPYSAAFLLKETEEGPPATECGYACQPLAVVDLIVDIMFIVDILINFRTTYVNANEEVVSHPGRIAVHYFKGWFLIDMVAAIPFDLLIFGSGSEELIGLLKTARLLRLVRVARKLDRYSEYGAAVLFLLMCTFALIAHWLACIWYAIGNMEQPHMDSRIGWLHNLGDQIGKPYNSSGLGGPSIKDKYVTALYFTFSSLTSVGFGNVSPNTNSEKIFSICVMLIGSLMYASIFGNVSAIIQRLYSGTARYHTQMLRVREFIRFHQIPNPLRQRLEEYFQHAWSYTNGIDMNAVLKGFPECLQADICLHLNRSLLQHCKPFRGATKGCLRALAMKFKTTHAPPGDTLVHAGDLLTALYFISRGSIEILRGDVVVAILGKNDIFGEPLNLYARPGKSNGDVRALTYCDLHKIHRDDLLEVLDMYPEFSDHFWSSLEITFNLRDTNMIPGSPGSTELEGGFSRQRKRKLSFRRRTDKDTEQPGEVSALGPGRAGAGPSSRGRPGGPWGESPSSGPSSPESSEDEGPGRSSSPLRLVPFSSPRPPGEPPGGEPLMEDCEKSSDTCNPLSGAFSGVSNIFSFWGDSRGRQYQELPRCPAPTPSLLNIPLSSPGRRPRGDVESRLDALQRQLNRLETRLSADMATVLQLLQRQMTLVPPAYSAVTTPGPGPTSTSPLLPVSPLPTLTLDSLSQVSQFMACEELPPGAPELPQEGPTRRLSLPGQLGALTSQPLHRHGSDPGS
Chain of 5-hydroxytryptamine receptor 2B (Homo sapiens) (P41595 whole entry): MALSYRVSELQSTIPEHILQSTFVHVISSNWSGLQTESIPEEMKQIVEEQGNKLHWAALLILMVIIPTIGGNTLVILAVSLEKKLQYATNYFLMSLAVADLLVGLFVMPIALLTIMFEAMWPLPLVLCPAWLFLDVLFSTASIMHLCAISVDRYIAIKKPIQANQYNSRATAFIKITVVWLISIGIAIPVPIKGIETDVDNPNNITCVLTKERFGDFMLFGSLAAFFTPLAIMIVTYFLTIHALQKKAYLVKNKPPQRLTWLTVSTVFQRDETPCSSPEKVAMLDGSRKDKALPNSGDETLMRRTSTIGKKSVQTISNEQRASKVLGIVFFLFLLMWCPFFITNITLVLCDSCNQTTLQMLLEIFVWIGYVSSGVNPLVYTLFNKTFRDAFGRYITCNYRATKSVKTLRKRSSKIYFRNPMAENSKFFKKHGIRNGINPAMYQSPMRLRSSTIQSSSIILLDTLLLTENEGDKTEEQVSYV

For `O=C(NCCCn1ccnc1)c1cc(-c2ccccc2)on1`, the inhibition [1] was “inactive”.

In the case of `O=C(NCCCN1CCOCC1)c1cc(-c2ccccc2)on1`, the inhibition [1] is reported as “inactive”.

With `CCCCNC(=O)c1cc(-c2ccc(F)cc2)on1` the inhibition [1] was “inactive”.

In the case of `O=C(NCCCCO)c1cc(-c2ccccc2)on1`, the inhibition [1] is reported as “inactive”.

In the case of `c1ccc(-c2ccc(CNc3nc(-c4ccccn4)nnc3-c3ccccc3)cc2)cc1`, the inhibition at 10 µM [2] is reported as 86%, the inhibition [3] is reported as 57% and the inhibition [4] is reported as “inactive”. For the same molecule, the inhibition [5] was 92%, the inhibition [6] was 56% and the inhibition [7] was 65%. For the same molecule, the inhibition [8] was 53%, the Activity [9] was “Non-toxic” and the inhibition [10] was 53%. For the same molecule, the inhibition [11] was 87%, the Activity [12] was “Non-toxic” and the inhibition [1] was 85%. The inhibition [13] was 67%, the inhibition [14] was 51% and the inhibition [15] was 80%. The inhibition [16] was 54%, the inhibition [17] was 67% and the inhibition [18] was 71%. For the same molecule, the inhibition [19] was 105%.

For `O=C(NCC1CC1)c1cc(-c2ccccc2)on1`, the inhibition [1] was “inactive”.
